Here are results for one compound from patent publication US11926846B2, “Hydroxyurea to enhance sperm cells” (Meharry Medical College, priority 2017, dated 2024).

Where “and” joins values, the source holds several entries; their conditions need not be identical. Equal values may be shown once.

In data set [1] the test system is human sperm. The data set can be described thus: Sperm motility after 24 hour culture in HTF-buffer containing HU (Working Example 1). It counts as cell-based. The conditions noted are these: 18 μg HU/mL, 37° C. As for the experimental part:
Human sperm was processed with HU to show enhanced motility over human sperm not processed with HU. Normal human semen was collected in 15 mL conical centrifuge tubes. Highly motile (i.e., Grade a) sperm were isolated and collected from the semen. The isolated highly motile sperm were washed in an HTF medium (HTF-HEPES; pH 7.4) containing 0.5% Bovine Serum Albumin (“BSA”) by centrifugation and suspended in bicarbonate (25 mM)-buffered HTF containing 0.5% (5 mg/ml) BSA (36; pH 7.4). Subsequently, each sperm suspension was incubated at 37° C. in an atmosphere of 5.0% CO2 in humidified air until aliquoted into the different treatment groups: a control group and a hydroxyurea processed group.
(§1) The control group was cultured in HTF-buffer containing 0 μg HU/mL at 37° C. in an atmosphere of 5.0% CO2 in humidified air for 24 hours. After the 24 hour culture, the control sperm were evaluated for pattern and degree of motility.
The hydroxyurea processed group was cultured in HTF-buffer containing 18 μg HU/mL at 37° C. in an atmosphere of 5.0% CO2 in humidified air for 24 hours. After the 24 hour culture, the hydroxyurea processed sperm were evaluated for pattern and degree of motility. […] The percentage of motile spermatozoa was calculated by multiplying the ratio of motile to 100 spermatozoa counted by 100.
The progressive motility of the control group sperm was higher (P<0.001; based on paired t-test comparison) than the progressive motility of the hydroxyurea processed group sperm. […] On the other hand, most of the sperm cells in the control buffer remained in a progressive motility state (motility pattern observed among sperm cells that have not acquired the ability to fertilize mature eggs). These findings are clinically significant, as progressive sperm motility is a determinant of ability of spermatozoa to penetrate cervical mucus on towards migration to the fertilization site (fallopian tubes), while that for hyperactive sperm motility (capacitation) is the motion pattern characteristic of spermatozoa that have attained the ability to fertilize mature eggs.

Data set [2] deals with human sperm. The data set is described as follows: Overall sperm motility after 24 hour culture with HU at HIV-suppressing concentrations (Working Example 2). It is filed as cell-based. The conditions noted are these: HTF-buffer, 37° C., control 70.3. The procedure: Normal human semen was collected in 15 mL conical centrifuge tubes. Highly motile (i.e., Grade a) sperm were isolated and collected from the semen. The isolated highly motile sperm were washed in HTF medium containing 0.5% BSA (HTF-HEPES; pH 7.4) by centrifugation and suspended in bicarbonate (25 mM)-buffered HTF containing 0.5% (5 mg/ml) BSA (36; pH 7.4). Subsequently, each sperm suspension was incubated at 37° C. in an atmosphere of 5.0% CO2 in humidified air until aliquoted into the different treatment groups: a control group and a hydroxyurea processed group.
as §1
The hydroxyurea processed groups were cultured in HTF-buffer in two groups containing different concentrations of HU: (1) 1.0 mM HU and (2) 2.0 mM HU. The groups were cultured at 37° C. in an atmosphere of 5.0% CO2 in humidified air for 24 hours. After the 24 hour culture, the hydroxyurea processed sperm were evaluated for pattern and degree of motility.
Thus, it had been previously believed that HU was an unsuitable agent to suppress HIV replication and/or activation in semen, or to reduce the risk of HIV transmission, via HU treatment of reproductive cells.

For data set [3], the system named is human spermatozoa in semen samples. The data set is described as follows: Sperm motility after cooling in freezing buffer with HU before cryopreservation (Working Example 3). It counts as cell-based. The procedure: (§2) Post semen analysis was conducted of discarded and de-identified semen samples from Ovation Fertility Center that met the World Health Organization (WHO) criteria for normal semen samples. Those semen samples that met the WHO criteria for normal were divided into two halves. One half was subjected to freezing with TEST-Yolk buffer (freezing buffer [FB]; Irvine Scientific, CA) containing 12% glycerol as cryoprotectant (control group). The remaining half of each sample was frozen with experimental freezing buffer composed of FB+HU (Sigma Aldridge, St. Louis; treatment group). Both control and experimental buffers were added on a 1:1 ratio to respective semen samples (v/v) in a dropwise manner. The final glycerol concentration in the semen+FB was 6%, and the final HU concentration in semen+experimental freezing buffer was 1 μM to use a concentration of HU that is effective in inhibiting HIV replication. Pre-freeze sperm motility was determined for each sample prior to initiating the cooling step of the freezing procedure. Samples in the control and treatment group were cooled for 24 hours to slow the HU-induced vigorously motile cells in the treatment group. Subsequently, post cooling motility was determined prior to liquid nitrogen vapor phase freezing for 30 minutes before being stored immersed in liquid nitrogen (LN) for at least 24 hours before being thawed for analysis. Samples were thawed at room temperature for 35 minutes prior to motility analysis.

Data set [4] shares this test system. The data set is described as follows: Post-cool and post-thaw sperm motility after cryopreservation in freezing buffer with HU (Working Example 4). The conditions noted are these: FB+HU, final HU 1 μM, listed as HU. It is filed as cell-based. As for the experimental part:
as §2, with “half” for “half was”, “6%” for “6%,”, “arm” for “step”, “HU induced” for “HU-induced”, “LN” for “liquid nitrogen (LN)”, “Samples were thawed at room temperature for 35 minutes prior to motility analysis.” left out

The subject of data set [5] is rats. The conditions noted are these: single dose; cited from earlier work.
For data set [6], the system named is rats. The data set can be described thus: Oral LD50 in rats. The conditions noted are these: rat oral LD50 divided by 1000.

Take `NC(=O)NO` [hydroxyurea, Hydroxyurea]: the “overall percentage motility (progressively + hyperactively motile spermatozoa)” value in data set [1] (5.0% CO2, 24 hours, control 75.4) was determined as 79.0%. The compound also displayed a hyperactive motility in data set [1] (24 hours, control 23.0) of 41.3%. The compound also had a progressive sperm motility in data set [1] (24 hours, control 51.7±10.2) of 37.7%. Besides, the overall motility in data set [2] (1.0 mM HU) was determined as 66.6; in data set [2] (2.0 mM HU), 68.3. In addition, the “level of overall spermatozoa with motility (FIGS. 2A-2H)” value in data set [3] (HU treated, video stills over about 9 seconds, control low level) was “moderate to high level”. Further, the “motility maintained of the initial population of motile spermatozoa (pre-freeze)” value in data set [3] (freezing medium supplemented with HU, control 28-45%) is on record as 76-84%. Further, the “longevity among post-thaw spermatozoa versus control group” value in data set [3] (frozen in FB+HU, post-thaw) is recorded as “higher”. The “mean of the post-cool motility relative to post cool motility (survival of cooling process in percentage)” value in data set [3] (mean of seven HU treated samples, control 50.71) is on record as 71.91%. Moreover, in data set [4] (liquid nitrogen at least 24 hours, thawed 35 minutes at room temperature, first figure of cell), the “Post-thaw Motility (HU; %)” value is 44% and 50% and 32%. In data set [4] (post-thaw, second figure of cell), the “Post-thaw Survival Relative to Post-cool Motility (HU; %)” value was 71% and 76% and 49%. Also, the “oral LD50” value in data set [5] was 5780 mg/kg. For the same compound, the “maximum effective dose (rough maximum safe dose for humans)” value in data set [6] is reported as ≤ 5.78 mg/kg.
